According to PMC10586543 (Advanced functional materials, 2023):

What was measured:
[1] = biological target: human α-thrombin (Homo sapiens, UniProt P00734); assay: In vitro specificity reaction with off-target protease; conditions: free peptide; 13.5 nM human α-thrombin; TCNB buffer; 37 °C, 1 h; fluorescence (Figure S2)
[2] = biological target: human recombinant MMP-9 (Homo sapiens, UniProt P14780); assay: as above; conditions: free peptide; 15 nM human recombinant MMP-9; TCNB buffer; 37 °C, 1 h; fluorescence (Figure S2)
Sequence of human recombinant MMP-9 (P14780 107-444 limits assumed): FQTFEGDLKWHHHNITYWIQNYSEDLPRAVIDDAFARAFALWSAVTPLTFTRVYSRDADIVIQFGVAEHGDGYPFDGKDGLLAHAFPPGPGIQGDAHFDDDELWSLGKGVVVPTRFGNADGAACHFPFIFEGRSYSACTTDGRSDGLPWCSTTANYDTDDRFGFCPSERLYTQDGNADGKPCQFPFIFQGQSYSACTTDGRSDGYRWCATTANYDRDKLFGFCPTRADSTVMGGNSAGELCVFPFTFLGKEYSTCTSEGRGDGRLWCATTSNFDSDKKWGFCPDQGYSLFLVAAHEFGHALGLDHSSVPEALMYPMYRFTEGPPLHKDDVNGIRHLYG

Biotin-GGSGG-K(5FAM)-QEVYGAMP-K(CPQ2)-C-NH2 [calpain substrate peptide]
activation after incubation with α-thrombin [1]: did not activate
activation after incubation with MMP9 [2]: did not activate
